Columns and labels:
lipoamide = compound: NC(=O)CCCCC1CCSS1 [lipoamide]; assay: thermal stability z-score vs DMSO; higher = more thermally stabilized by treatment; details: HeLa, lipoamide concentration 100 µM
Method: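 Cellular thermal proteome profiling in HeLa cells. Cells were treated with 100 µM lipoamide for 1 h, with or without 1 mM arsenate for a further 1 h, then heated to ten temperatures (37-66.3 °C), and soluble protein was quantified by TMT mass spectrometry relative to 0.1% DMSO controls. The thermal stability score (sum of log2 fold changes minus the abundance score) was transformed to a z-score; mean of n = 3 experiments.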

potassium arsenate = compound: O=[As]([O-])(O)O.[K+] [potassium arsenate]; assay: as above; details: HeLa; arsenate concentration 1 mM
Method: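 Cellular thermal proteome profiling in HeLa cells treated with 1 mM arsenate for 1 h (DMSO pretreatment), heated to ten temperatures (37-66.3 °C). Soluble protein was quantified by TMT mass spectrometry relative to DMSO controls; the thermal stability score was transformed to a z-score; mean of n = 3 experiments.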

[1] = arsenate co-treatment: 1 mM arsenate 1 h
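Note: each temperature applied for 3 min, abundance score taken as mean log2 fold change at the two lowest temperatures, z-score obtained by mean subtraction and division by SD.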

UniProt Q9Y5K6, sequence (Q9Y5K6 whole entry): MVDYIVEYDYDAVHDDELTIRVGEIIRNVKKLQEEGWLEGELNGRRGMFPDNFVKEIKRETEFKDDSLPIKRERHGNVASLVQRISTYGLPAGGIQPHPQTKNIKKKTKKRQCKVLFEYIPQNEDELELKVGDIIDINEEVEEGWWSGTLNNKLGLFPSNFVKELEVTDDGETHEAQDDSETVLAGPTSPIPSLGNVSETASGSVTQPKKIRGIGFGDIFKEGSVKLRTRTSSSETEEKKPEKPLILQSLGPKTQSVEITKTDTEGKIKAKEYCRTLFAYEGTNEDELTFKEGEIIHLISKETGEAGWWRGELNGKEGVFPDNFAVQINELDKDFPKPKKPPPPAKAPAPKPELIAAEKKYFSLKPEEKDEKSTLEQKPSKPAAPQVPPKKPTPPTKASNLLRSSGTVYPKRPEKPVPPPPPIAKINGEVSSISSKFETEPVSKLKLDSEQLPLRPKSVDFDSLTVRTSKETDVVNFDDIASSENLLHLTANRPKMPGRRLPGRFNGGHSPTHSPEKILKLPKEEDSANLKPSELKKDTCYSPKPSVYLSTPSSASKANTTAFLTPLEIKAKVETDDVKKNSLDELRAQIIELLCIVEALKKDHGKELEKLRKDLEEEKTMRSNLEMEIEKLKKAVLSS
UniProt P09601, sequence (P09601 whole entry): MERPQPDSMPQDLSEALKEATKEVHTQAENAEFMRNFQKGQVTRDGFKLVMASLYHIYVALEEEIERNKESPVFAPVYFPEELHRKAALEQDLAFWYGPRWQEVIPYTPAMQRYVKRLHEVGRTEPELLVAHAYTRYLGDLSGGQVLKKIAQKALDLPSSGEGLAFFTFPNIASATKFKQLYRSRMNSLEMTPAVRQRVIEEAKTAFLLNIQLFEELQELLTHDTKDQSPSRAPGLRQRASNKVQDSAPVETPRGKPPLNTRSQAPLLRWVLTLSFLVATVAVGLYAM
UniProt Q96RQ1, sequence (Q96RQ1 whole entry): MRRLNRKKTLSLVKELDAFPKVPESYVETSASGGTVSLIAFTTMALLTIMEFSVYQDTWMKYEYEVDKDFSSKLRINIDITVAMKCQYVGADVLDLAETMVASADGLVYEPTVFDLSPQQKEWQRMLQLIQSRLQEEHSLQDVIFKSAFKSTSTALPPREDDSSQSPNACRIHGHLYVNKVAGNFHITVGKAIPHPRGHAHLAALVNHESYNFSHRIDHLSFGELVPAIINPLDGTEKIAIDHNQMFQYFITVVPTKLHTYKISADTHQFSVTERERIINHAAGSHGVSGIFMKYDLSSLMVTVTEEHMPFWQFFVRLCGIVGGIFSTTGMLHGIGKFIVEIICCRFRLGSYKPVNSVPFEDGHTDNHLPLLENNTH
UniProt Q6P5Z2, sequence (Q6P5Z2 whole entry, looked up): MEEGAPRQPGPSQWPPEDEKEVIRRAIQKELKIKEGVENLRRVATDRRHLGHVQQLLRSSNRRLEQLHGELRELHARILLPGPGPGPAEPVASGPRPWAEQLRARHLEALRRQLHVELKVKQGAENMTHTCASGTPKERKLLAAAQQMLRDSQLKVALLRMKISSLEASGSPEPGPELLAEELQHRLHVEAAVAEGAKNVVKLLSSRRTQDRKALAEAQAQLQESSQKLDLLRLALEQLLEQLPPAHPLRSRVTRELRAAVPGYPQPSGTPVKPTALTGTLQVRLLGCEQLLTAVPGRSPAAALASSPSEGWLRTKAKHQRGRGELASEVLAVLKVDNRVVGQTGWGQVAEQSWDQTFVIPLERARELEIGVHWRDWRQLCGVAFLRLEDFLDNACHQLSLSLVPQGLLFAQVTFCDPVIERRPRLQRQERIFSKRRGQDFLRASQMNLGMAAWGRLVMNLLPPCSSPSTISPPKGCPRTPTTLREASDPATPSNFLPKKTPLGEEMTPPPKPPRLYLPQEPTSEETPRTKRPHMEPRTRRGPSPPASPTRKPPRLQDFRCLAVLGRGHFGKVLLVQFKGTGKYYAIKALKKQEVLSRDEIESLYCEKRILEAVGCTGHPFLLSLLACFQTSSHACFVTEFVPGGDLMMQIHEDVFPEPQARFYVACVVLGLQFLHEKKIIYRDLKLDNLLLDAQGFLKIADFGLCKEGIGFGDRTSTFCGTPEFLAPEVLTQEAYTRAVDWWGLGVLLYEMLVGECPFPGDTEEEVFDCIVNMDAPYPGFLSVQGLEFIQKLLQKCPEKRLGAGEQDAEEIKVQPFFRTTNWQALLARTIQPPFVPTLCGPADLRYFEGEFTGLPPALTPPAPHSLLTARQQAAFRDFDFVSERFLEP
UniProt Q99615, sequence (Q99615 whole entry): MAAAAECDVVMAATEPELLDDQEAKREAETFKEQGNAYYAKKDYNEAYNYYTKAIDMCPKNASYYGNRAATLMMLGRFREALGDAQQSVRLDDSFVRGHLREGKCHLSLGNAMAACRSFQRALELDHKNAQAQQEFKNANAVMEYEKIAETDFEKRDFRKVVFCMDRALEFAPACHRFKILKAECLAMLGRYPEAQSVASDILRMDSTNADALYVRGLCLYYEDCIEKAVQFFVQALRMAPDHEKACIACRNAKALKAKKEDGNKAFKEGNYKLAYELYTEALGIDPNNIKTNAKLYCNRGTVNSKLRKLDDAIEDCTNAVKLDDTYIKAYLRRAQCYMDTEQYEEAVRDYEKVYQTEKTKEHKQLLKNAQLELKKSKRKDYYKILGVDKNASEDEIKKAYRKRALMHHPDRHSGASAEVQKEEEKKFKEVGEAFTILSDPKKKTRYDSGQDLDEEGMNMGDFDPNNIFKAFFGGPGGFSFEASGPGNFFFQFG
UniProt Q8IU85, sequence (Q8IU85 whole entry, looked up): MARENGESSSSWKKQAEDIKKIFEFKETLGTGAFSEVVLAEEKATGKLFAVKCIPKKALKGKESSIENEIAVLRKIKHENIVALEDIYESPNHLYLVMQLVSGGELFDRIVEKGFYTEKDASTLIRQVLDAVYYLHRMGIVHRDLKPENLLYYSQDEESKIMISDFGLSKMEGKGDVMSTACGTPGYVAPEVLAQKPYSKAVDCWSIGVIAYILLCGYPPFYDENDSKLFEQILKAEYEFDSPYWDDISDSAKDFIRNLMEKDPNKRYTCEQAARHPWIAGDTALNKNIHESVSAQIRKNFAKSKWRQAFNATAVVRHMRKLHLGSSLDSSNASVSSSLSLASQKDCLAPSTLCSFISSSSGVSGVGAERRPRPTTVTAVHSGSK
UniProt Q15003, sequence (Q15003 whole entry): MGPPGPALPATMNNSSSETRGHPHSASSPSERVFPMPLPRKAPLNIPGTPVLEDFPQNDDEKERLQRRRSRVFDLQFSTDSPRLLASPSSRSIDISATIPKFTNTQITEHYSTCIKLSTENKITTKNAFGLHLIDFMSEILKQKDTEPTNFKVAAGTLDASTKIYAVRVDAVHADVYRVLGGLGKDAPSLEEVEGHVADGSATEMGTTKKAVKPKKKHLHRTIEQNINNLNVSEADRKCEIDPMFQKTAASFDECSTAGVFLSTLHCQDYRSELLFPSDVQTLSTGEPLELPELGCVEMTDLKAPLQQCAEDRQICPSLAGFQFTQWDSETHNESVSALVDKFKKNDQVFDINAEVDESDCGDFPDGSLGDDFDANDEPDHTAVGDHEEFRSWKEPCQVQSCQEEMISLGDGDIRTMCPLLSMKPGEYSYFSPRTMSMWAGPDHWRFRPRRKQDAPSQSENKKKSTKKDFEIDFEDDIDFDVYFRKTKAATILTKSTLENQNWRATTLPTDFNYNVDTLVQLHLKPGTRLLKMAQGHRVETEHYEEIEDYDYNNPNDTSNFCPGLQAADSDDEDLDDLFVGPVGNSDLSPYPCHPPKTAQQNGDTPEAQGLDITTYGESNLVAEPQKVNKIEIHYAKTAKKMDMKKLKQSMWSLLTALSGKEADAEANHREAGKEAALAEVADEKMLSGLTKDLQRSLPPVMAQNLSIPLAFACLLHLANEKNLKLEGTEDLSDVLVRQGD
UniProt Q8WXW3, sequence (Q8WXW3 whole entry): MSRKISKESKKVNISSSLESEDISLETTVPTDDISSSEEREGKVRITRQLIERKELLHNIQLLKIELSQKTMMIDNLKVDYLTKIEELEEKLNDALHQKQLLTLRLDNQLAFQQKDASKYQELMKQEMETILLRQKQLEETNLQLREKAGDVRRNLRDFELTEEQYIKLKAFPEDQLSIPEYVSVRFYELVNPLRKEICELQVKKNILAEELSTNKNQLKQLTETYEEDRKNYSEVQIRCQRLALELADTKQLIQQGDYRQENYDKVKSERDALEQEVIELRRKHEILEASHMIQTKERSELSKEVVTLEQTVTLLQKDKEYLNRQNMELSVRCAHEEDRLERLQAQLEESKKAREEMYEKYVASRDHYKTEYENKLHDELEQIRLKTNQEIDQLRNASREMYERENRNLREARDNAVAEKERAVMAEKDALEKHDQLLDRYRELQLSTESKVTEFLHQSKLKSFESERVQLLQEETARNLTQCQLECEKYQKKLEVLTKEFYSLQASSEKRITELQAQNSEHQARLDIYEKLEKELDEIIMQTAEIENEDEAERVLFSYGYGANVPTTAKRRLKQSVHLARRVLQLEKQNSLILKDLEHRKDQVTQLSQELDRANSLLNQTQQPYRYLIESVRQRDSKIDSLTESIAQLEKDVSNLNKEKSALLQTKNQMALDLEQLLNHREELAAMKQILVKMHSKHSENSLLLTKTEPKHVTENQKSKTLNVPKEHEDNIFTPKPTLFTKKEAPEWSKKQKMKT
UniProt P09471, sequence (P09471 whole entry, looked up): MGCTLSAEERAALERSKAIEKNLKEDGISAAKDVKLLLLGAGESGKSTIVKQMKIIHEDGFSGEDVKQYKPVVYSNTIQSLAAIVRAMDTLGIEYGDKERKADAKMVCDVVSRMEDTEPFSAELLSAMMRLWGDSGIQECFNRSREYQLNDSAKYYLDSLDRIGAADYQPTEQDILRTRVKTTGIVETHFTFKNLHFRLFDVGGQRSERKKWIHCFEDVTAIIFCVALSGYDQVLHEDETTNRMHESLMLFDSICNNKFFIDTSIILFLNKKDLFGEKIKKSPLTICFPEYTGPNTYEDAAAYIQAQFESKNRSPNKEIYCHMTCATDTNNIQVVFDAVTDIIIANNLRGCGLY
UniProt Q9BZL1, sequence (Q9BZL1 whole entry): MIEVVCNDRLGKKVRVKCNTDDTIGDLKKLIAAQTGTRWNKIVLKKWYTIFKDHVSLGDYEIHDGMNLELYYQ

Target | thermal stability z-score (lipoamide; [1]) | thermal stability z-score (lipoamide; arsenate co-treatment: none) | thermal stability z-score (potassium arsenate)
CAMK1D (UniProt Q8IU85) | -0.513 | -0.221 | 0.553
CLTC (UniProt Q00610) | 0.447 | 0.409 | -0.263
YTHDF1 (UniProt Q9BYJ9) | 0.00152 | -0.0393 | -0.193
NCAPH (UniProt Q15003) | -1.04 | -0.316 | 0.387
ERGIC2 (UniProt Q96RQ1) | -0.942 | -0.866 | -0.232
TM7SF3 (UniProt Q9NS93) | -0.0176 | -0.523 | 0.533
TMEM199 (UniProt Q8N511) | -0.91 | -1.15 | 0.171
WDR48 (UniProt Q8TAF3) | 0.197 | 0.3 | 1.13
PLA2G4A (UniProt P47712) | -0.308 | -0.439 | -0.294
WRNIP1 (UniProt Q96S55) | -0.272 | -0.113 | 0.0587
RAE1 (UniProt P78406) | 0.676 | 1.04 | 0.662
C2CD5 (UniProt Q86YS7) | 0.332 | 0.297 | -0.133
ISG20L2 (UniProt Q9H9L3) | -0.0445 | -0.0231 | -0.367
FAM91A1 (UniProt Q658Y4) | -0.0432 | -0.00182 | -0.0432
HSD17B7 (UniProt P56937) | 0.202 | 0.543 | 1.82
SRPRB (UniProt Q9Y5M8) | -0.411 | 0.511 | 1.49
RPA3 (UniProt P35244) | 0.313 | 0.624 | 0.872
PIBF1 (UniProt Q8WXW3) | -0.108 | -0.184 | -0.0727
PSMA1 (UniProt P25786) | 0.629 | 0.284 | 0.373
UBL5 (UniProt Q9BZL1) | -0.115 | -0.0438 | -0.107
SLC9A3R2 (UniProt Q15599) | -0.0651 | 0.332 | -0.923
RIF1 (UniProt Q5UIP0) | 0.0548 | -0.0166 | -0.353
GNAO1 (UniProt P09471) | 0.151 | -0.44 | -0.313
TRUB2 (UniProt O95900) | 0.00158 | 0.0663 | -0.133
FAM234B (UniProt A2RU67) | -0.257 | -0.241 | -0.192
CHD3 (UniProt Q12873) | 0.00382 | -0.131 | -0.306
PER1 (UniProt O15534) | 0.107 | -0.119 | -0.023
AMBRA1 (UniProt Q9C0C7) | 0.0433 | 0.0956 | 0.446

Target | thermal stability z-score (lipoamide; [1]) | thermal stability z-score (lipoamide; arsenate co-treatment: none) | thermal stability z-score (potassium arsenate)
ATG2B (UniProt Q96BY7) | -0.149 | 0.0605 | -0.0277
DNAJC7 (UniProt Q99615) | -0.214 | 0.475 | -0.656
NRDE2 (UniProt Q9H7Z3) | 0.0849 | 0.0451 | -0.184
PDPK1 (UniProt O15530) | 0.174 | 0.131 | 0.451
IQGAP1 (UniProt P46940) | 0.776 | 0.818 | -1.08
TPP2 (UniProt P29144) | 0.657 | 0.44 | 0.194
ORC5 (UniProt O43913) | -0.0478 | 0.0761 | -0.065
POR (UniProt P16435) | -0.215 | -0.028 | 1.03
MRPS15 (UniProt P82914) | 0.673 | 0.571 | 0.555
RASA3 (UniProt Q14644) | 0.0194 | 0.0519 | 0.0995
HEXIM1 (UniProt O94992) | 0.736 | 0.591 | 0.384
MAT2B (UniProt Q9NZL9) | -0.368 | -0.144 | -0.705
ASMTL (UniProt O95671) | 1.09 | 1.31 | -0.959
HELZ2 (UniProt Q9BYK8) | -0.0529 | -0.115 | -0.0872
SET (UniProt Q01105) | 0.154 | 0.00988 | -0.503
ESYT2 (UniProt A0FGR8) | -0.934 | -0.479 | -0.306
GTPBP10 (UniProt A4D1E9) | -0.946 | 0.2 | 0.522
SCLY (UniProt Q96I15) | 0.111 | 0.27 | -0.415
CD2AP (UniProt Q9Y5K6) | 0.591 | 0.887 | 0.988
ASF1A (UniProt Q9Y294) | -0.132 | -0.202 | -0.103
HMOX1 (UniProt P09601) | -0.0402 | -0.011 | -0.107
HPS6 (UniProt Q86YV9) | 0.00908 | 0.132 | -0.0451
PRRC2B (UniProt Q5JSZ5) | -0.32 | -0.119 | -0.412
PSMD1 (UniProt Q99460) | 0.651 | 0.343 | 0.245
ODC1 (UniProt P11926) | 0.0303 | 0.354 | 0.106
GLMP (UniProt Q8WWB7) | 2.79 | 3.71 | 3.11
PKN3 (UniProt Q6P5Z2) | -0.237 | 0.334 | 0.231
